Laboratory results published in US12624026B2, “Inhibitors of SARM1” (Disarm Therapeutics, Inc., priority 2018, dated 2026).

What was measured:
[1] = tested on: mouse dorsal root ganglion (DRG) drop culture; assay: Axon degeneration assay in mouse DRG drop culture; type: cell-based; settings: protection of axon fragmentation, axonal transection or chemotoxic stimuli
Experimental: This Example illustrates an in vitro axon degeneration assay used to characterize compounds of Formula I or Formula II. This assay is used to test the efficacy of the compounds of Formula I or Formula II to prevent axonal degeneration in a mouse dorsal root ganglion (DRG) drop culture.
Mouse DRG Drop culture: Mouse dorsal root ganglion neurons (DRGs) were dissected out of E12.5 CD1 mice (50 ganglion per embryo) and incubated with 0.5% Trypsin solution containing 0.02% EDTA (Gibco) at 37° C. for 15 min. The cells were then triturated by gentle pipetting and washed 3 times with DRG growth medium (Neurobasal medium (Gibco) containing 2% B27 (Invitrogen), 100 ng/ml 2.5S NGF (Harland Bioproducts), […] 5-fluoro-2′deoxyuridine (Sigma), penicillin, and streptomycin). Cells were suspended in the DRG growth medium. DRG drop cultures were created by spotting 5000 cells/well into the center of each well of a 96-well tissue culture plate coated with poly-D-Lysine (0.1 mg/ml; Sigma) and laminin ([…]; Invitrogen). Cells were allowed to adhere to the plates in a humidified tissue culture incubator (5% CO2) for 15 min and then DRG growth medium was gently added ([…]).
Axon degeneration assay: Axonal degeneration was stimulated either by manual axonal transection using a scalpel blade, or chemotoxic stimuli. After an appropriate experimental time period, the DRG cultures were fixed in 1% PFA plus sucrose and kept in the fridge prior to imaging. Bright-field images of DRG axons and cell bodies were collected using the 20× water immersion lens of a Phenix automated confocal microscope (PerkinElmer) and quantitation of axonal performed using in-house developed scripts (Acapella, PerkinElmer).

SARM1 SAM-TIR = molecular target: T1, SARM1 SAM-TIR (Homo sapiens, UniProt Q6SZW1); assay: biochemical; settings: SAM-TIR lysate 5 μg/mL, 2 h pre-incubation, 5 μM NAD+, RapidFire MS of NAD+ and ADPR; read-out: SARM1 IC50;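 further: inhibition of SARM1 SAM-TIR NADase activity, i.e. NAD+ cleavage, using lysate of NRK1-HEK293T cells overexpressing the SAM-TIR fragment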
T1 construct: a fragment of the SARM1 molecule encompassing the SAM and TIR domains; made in house; host or cells: NRK1-HEK293T cells, transiently transfected; the cleared, unpurified lysate was used as the enzyme
T1 sequence (Q6SZW1 409-724 limits assumed): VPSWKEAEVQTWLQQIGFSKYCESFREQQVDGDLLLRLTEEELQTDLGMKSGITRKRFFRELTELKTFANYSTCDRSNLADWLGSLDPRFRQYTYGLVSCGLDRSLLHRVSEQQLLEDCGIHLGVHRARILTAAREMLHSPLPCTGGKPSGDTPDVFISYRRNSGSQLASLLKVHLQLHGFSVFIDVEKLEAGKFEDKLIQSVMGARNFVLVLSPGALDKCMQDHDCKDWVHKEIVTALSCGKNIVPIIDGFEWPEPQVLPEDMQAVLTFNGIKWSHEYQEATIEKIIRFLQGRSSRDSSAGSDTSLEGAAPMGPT

| IC50 (SARM1 SAM-TIR) [µM] | Compound | IC50 [1] [µM] |
| --- | --- | --- |
| 1 to 5 | N#Cc1c(O)nsc1Nc1cccc(C(F)(F)F)c1 [Example 12] | < 10 |
| 1 to 5 | N#Cc1c(O)nsc1Nc1cccc2ncccc12 [Example 27] | < 10 |
| < 1 | Cn1sc(Nc2ccccc2C(F)(F)F)c(C#N)c1=O [Example 31] | 10 to 30 |
